Data published in patent US20110263510A1, “Methods of Inhibiting Cell Death or Inflammation in a Mammal” (priority 2006, published 2011).
Ends that are not written are not given here. Peptide text beside a SMILES is read from it. * marks the point of attachment. Cbz = O=C(OCc1ccccc1)*; CH2F = FC*

B1: rhA1/Bfl-1: human A1 minus 25 amino acids at the carboxy terminal and addition of 6 histidine on the remaining protein (protein, listed as Homo sapiens)
chain: MTDCEFGYIYRLAQDYLQCVLQIPQPGSGPSKTSRVLQNVAFSVQKEVEKNLKSCLDNVNVVSVDTARTLFNQVMEKEFEDGIINWGRIVTIFAFEGILIKKLLRQQIAPDVDTYKEISYFVAEFIMNNTGEWIRQNGGWENGFVKKFEPKSHHHHHH

Columns and labels:
[1] = test system: skeletal muscle ischemia-reperfusion injury; conditions: Iwata et al., Blood 100:2077, 2002; cited from earlier work
[2] = test system: hind-limbs of C57BL/6 mice, ischemia-reperfusion injury; assay: hind-limb tourniquet ischemia (90 minutes) and reperfusion (3 hours), plasma creatine kinase; type: in vivo, mouse; conditions: pretreatment
Protocol: Skeletal muscle was made ischemic by applying a tourniquet to the hind-limbs of C57BL/6 mice for 90 minutes, then removing the tourniquet and allowing reperfusion for an additional 3 hours. Mice were treated with active peptide 1 (SEQ ID NO:17) or peptide 2 (SEQ ID NO:18) or peptide 3 (SEQ ID NO:19), or with the scrambled (control) peptide (SEQ ID NO:20). Peptide-1 (SEQ ID NO:17) is from the BH4 region of Bcl-2. Peptide-2 (SEQ ID NO:18) is from the first alpha helix of A1/Bfl-1. Peptide-3 (SEQ ID NO:19) is from the BH4 region of Bcl-XL. The amino acid sequences of peptide 1 (SEQ ID NO:17), peptide 2 (SEQ ID NO:18), peptide 3 (SEQ ID NO:19), and the scrambled (control) peptide (SEQ ID NO:20) are set forth in Table 1.
At the end of the 3 hours of reperfusion the mice were killed, and blood was taken for determination of plasma creatine kinase (CK) concentration. The CK concentration was used as an indicator of muscle injury. Elevated levels of CK indicate higher levels of muscle injury. […] The CK concentration for peptide 1 (SEQ ID NO:17) treated mice was 19,020+/−5481 IU/L (n=12) compared with control peptide (SEQ ID NO:20) where CK concentration was 60,530+/−5759 IU/L (n=12). The CK concentration for peptide 2 (SEQ ID NO:18) treated mice was 33,860+/−5997 IU/L (n=11) compared with control peptide (SEQ ID NO:20) where CK concentration was 69,430+/−11,170 IU/L (n=12). The CK concentration for peptide 3 (SEQ ID NO:19) treated mice was 49,500+/−3,901 IU/L (n=5) compared with control peptide (SEQ ID NO:20) where CK concentration was 80,880+/−11,430 IU/L (n=6).

[3] = test system: C57BL/6 mice subjected to hind limb ischemia and reperfusion; assay: hind limb ischemia (aortic cross-clamp, 90 minutes) and reperfusion (3 hours), plasma creatine kinase; type: in vivo; conditions: 1 microgram/mouse intraperitoneally the day before, 12 mice per group
Protocol: Mouse skeletal muscle was made ischemic by cross-clamping the aorta distal to the renal artery for 90 minutes, then the clamp was removed and hind limb reperfusion continued for 3 hours. At the end of reperfusion (3 hours after clamp removal) the mice were killed, and the concentration of plasma creatine kinase (CK) was measured and used as an indicator of injury (creatine kinase concentration increases as a result of skeletal muscle injury).
Blood from EμT-Bcl-2 mice and their littermate control mice was drawn into heparin and plasma was extracted by centrifugation. One ml of plasma from EμT-Bcl-2 mice, or one ml of plasma from littermate control mice, was injected into the peritoneum of C57BL/6 mice the day before the mice were subjected to 90 minutes of ischemia and 3 hours of reperfusion as described in Example 1 herein. Blood was drawn from the mice and plasma CK concentration was determined at the end of reperfusion.
C57BL/6 mice were injected intraperitoneally with 1 μg per mouse of recombinant human Bcl-2 (rBcl-2) (SEQ ID NO:15) or 1 μg per mouse of recombinant human ubiquitin (rUbiquitin), or the vehicle solution for rBcl-2 the day before the mice were subjected to hind limb ischemia (90 minutes) and reperfusion (180 minutes) as described in Example 1. […]

[4] = test system: previously ischemic muscle of mice; assay: tourniquet ischemia/reperfusion, skeletal muscle tissue viability by MTT; type: in vivo, mouse; conditions: measured the following day
Source text: The ability of a Bcl protein to inhibit cell death in a mammal, and/or to inhibit inflammation in a mammal concurrent with or after the onset of a condition expected to lead to cell death or inflammation, can be assessed, for example, in a mammal subjected to ischemia-reperfusion injury. As used herein, “determining,” “measuring,” and “assessing,” and “assaying” are used interchangeably and include both quantitative and qualitative determinations. For example, one or more of the following markers and/or assays can be used to assess the ability of a Bcl protein to inhibit cell death and/or inflammation in a mammal subjected to ischemia-reperfusion injury: 1. […] The viability of tissue subjected to I/R was measured using 3-(4,5-dimethylthiazol-2-yl)-2,5-diphenyl tetrazolium (MTT) (Ferrera et al., J Mol Cell Cardiol 25:1091, 1993). […]
Anesthetized mice were subjected to 90 minutes of tourniquet ischemia using a hemorrhoid ligator followed by reperfusion and were treated at various times by a subcutaneous injection of 1 microgram of either rhA1/Bfl-1 or rhBim, a pro-apoptotic Bcl-2 family member that lacks a BH4 or BH4-like domain (O'Connor et al., EMBO J. 17:384, 1998). The following day, mice were killed, the previously ischemic muscle removed, and tissue viability measured using 3-(4,5-dimethylthiazol-2-yl)-2,5-diphenyl tetrazolium (MTT). […]

[5] = experiment peptide 2 (n=11) versus control peptide (n=12)
[6] = experiment peptide 3 (n=5) versus control peptide (n=6)
[7] = experiment peptide 1 (n=12) versus control peptide (n=12)

Molecule	CK concentration [2, 5]	CK concentration [2, 6]	CK concentration [2, 7]	other results
CC(NC(=O)C(NC(=O)OCc1ccccc1)C(C)C)C(=O)NC(CC(=O)O)C(=O)CF (stereo not drawn) [z-VAD] (Cbz-Val-Ala-Asp-CH2F; configuration not given here)	–	–	–	DNA strand-breaks after extended ischemia and reperfusion of skeletal muscle [1]: prevents the strand-breaks; plasma CK concentration after extended ischemia and reperfusion of skeletal muscle [1]: reduces the plasma CK concentration
FGYIYRLAQDYLQCVLQIPZPGSGP (FGYIYRLAQDYLQCVLQIPXPGSGP; X not resolved here; also: Z at 20 undefined) [peptide 2, from the first alpha helix of A1/Bfl-1]	33,860+/−5997 IU/L	–	–	–
MSQSNRELVVDFLSYKLSQKGYSWSQF [peptide 3]	–	49,500+/−3,901 IU/L	–	–
TGYDNREIVMKYIHYKLSQRGYEWD [peptide 1]	–	–	19,020+/−5481 IU/L	–
TWHMYGNQRDYIGDRSKIVYKLEYE [control peptide, scrambled (control) peptide, reference compound]	69,430+/−11,170 IU/L	80,880+/−11,430 IU/L	60,530+/−5759 IU/L	–
B1	–	–	–	plasma creatine kinase concentration compared to mice injected with rUbiquitin [3]: significantly (p<0.05) lower; average plasma creatine kinase concentration ([3]; 90 min ischemia, 180 min reperfusion): 4,353+/−1284 IU/L; tissue viability normalized to tissue dry weight (MTT), compared to rhBim ([4]; 1 microgram subcutaneous 4 hours after the start of reperfusion, FIG. 11): significantly greater tissue viability; tissue viability normalized to tissue dry weight (MTT), compared to rhBim ([4]; 1 microgram subcutaneous at the time of reperfusion, FIG. 10): greater viability
